From patent US7455984B2, “Immunoreactive and immunotherapeutic molecules” (The Walter and Eliza Hall Institute of Medical Research, priority 1995, dated 2008)

Tested on: Peripheral blood mononuclear cells from IDDM at-risk and HLA-DR matched control subjects
Assay: T-cell proliferation assay ([3H]thymidine incorporation, delta score), ten HLA-DR matched pairs
Format: cell-based, human
Conditions: for Reactivity (T-cell proliferation) by subject group: IDDM at-risk and control subjects, ten pairs; for Delta Score, Mean: mean of 10 subjects; for T-cell proliferative response, IDDM at-risk versus control subjects: highest concentration of peptide, Wilcoxon one-tailed paired analysis (proinsulin p<0.008; GAD p<0.018)

## CRFDPQFALTNIAVRK [unrelated control peptide, irrelevant control peptide (Macromolecular Resources, Fort Collins, Colo.), reference compound]
  Reactivity (T-cell proliferation) by subject group: no subject reacted

## FFYTPKTRREAED [Proinsulin, synthetic 13-mer peptide of human proinsulin, amino acid residues 24-36]
  Reactivity (T-cell proliferation) by subject group: confined almost entirely to IDDM at-risk subjects
  T-cell proliferative response, IDDM at-risk versus control subjects: greater among IDDM at-risk than control subjects
Proinsulin 0.4 μg/ml, At Risk, Wilcoxon one-tailed P 0.054 vs Control
  Delta Score, Mean: 136.0 cpm
Proinsulin 0.4 μg/ml, Control subject of each pair
  Delta Score: 0 cpm
Proinsulin 0.4 μg/ml, Control
  Delta Score, Mean: 0 cpm
Proinsulin 2 μg/ml, At Risk, Wilcoxon one-tailed P 0.125 vs Control
  Delta Score, Mean: 251.1 cpm
Proinsulin 2 μg/ml, Control
  Delta Score, Mean: 45.8 cpm
Proinsulin 10 μg/ml, At Risk, Wilcoxon one-tailed P 0.008 vs Control
  Delta Score, Mean: 558.7 cpm
Proinsulin 10 μg/ml, Control
  Delta Score, Mean: 27.6 cpm

## FWYIPPSLRTLED [GAD, synthetic 13-mer peptide of human GAD 65, amino acid residues 506-518]
GAD 0.4 μg/ml, At Risk, Wilcoxon one-tailed P 0.199 vs Control
  Delta Score, Mean: 135.3 cpm
GAD 0.4 μg/ml, Control
  Delta Score, Mean: 34.1 cpm
GAD 2 μg/ml, At Risk, Wilcoxon one-tailed P 0.199 vs Control
  Delta Score, Mean: 133.0 cpm
GAD 2 μg/ml, Control
  Delta Score, Mean: 178.2 cpm
GAD 10 μg/ml, At Risk, Wilcoxon one-tailed P 0.018 vs Control
  Delta Score, Mean: 1042.4 cpm
GAD 10 μg/ml, Control
  Delta Score, Mean: 318.1 cpm
  Reactivity (T-cell proliferation) by subject group: some controls also responded
  T-cell proliferative response, IDDM at-risk versus control subjects: greater among IDDM at-risk than control subjects
